In US20230181727A1, “COMPOSITION OF NANOPARTICLES” (priority 2020, published 2023):

Legend:
[1] = Solubility enhancement of epitopes (solubility in water); type: physicochemical
Text: On the N-terminal site of the enzymatically cleaved linker the addition of polar amino acids can be used to enhance the solubility of the whole peptide. […] The use in a human vaccine is difficult. In animal studies researchers dissolve it in DMSO. The solubility after e.g. subcutaneous injection is questionable: dilution might result in precipitation of large peptide particles, which is very unfavorable for transport to lymphnodes.
According to the invention the epitope […] was enlarged on the N-terminal site with the enzymatic cleavable linker Val-Cit and the cationic solubilizing sequence Lys-Lys-Lys, leading to […]

DC2.4 cells = assay: MHC I cross presentation of OVA 257-264 in DC2.4 cells; type: cell-based, murine; conditions: 5 μM, 6 h incubation, 25-D1.16 antibody, flow cytometry
Experimental: In the experiment, the OVA257-264 presentation efficacy after incubation of 5.10^4 DC2.4 cells with 5 μM solutions of full length protein (OVA=Ovalbumin), N— and C-terminal elongated epitope (OVA247-264A5K, a so called synthetic long peptide (SLP)), N-terminal elongated epitope with a Cathepsin B cleavable sequence (exemplary shown RW-Cit-OVA257-264) or native epitope (OVA257-264), each with and without nanoparticles, was compared. […] After an incubation time of 6 h, the test substances are removed by washing with phosphate-buffered saline (PBS). In the next step, the cells were incubated with CD1 6/CD32 antibody in order to block the non-specific binding of the detection antibody to the Fc (Fragment, crystallizable) receptor of the cells. After incubation with 25-D1.16 antibody, the amount of cross-presented OVA257-264 was quantified by flow cytometry.
FIG. 16: OVA257-264 MHC I expression after 6 h incubation of H2-Kb positive cells with 5 μM solution of native or elongated OVA257-264 epitope or full length OVA protein with or without SiO2—PO3H2. Quantification was carried out by flow cytometry after labeling with 25-D1.16 detection antibody.

Compound	solubility in water [1]	OVA257-264 MHC I expression (DC2.4 cells)
CC[C@H](C)[C@H](NC(=O)CNC(=O)[C@H](CC(C)C)NC(=O)[C@@H](NC(=O)CNC(=O)[C@H](CCSC)NC(=O)[C@H](CC(C)C)NC(=O)[C@H](CC(C)C)NC(=O)[C@H](CCCNC(N)=O)NC(=O)[C@@H](NC(=O)[C@H](CCCCN)NC(=O)[C@H](CCCCN)NC(=O)[C@@H](N)CCCCN)C(C)C)[C@@H](C)O)C(=O)N[C@H](C(=O)O)C(C)C	excellent solubility in water	
CC[C@H](C)[C@H](NC(=O)CNC(=O)[C@H](CC(C)C)NC(=O)[C@@H](NC(=O)CNC(=O)[C@H](CCSC)NC(=O)[C@H](CC(C)C)NC(=O)[C@@H](N)CC(C)C)[C@@H](C)O)C(=O)N[C@H](C(=O)O)C(C)C	very bad solubility in water	
SIINFEKL [OVA257-264]		presented in significant amounts
